Reference: ChEMBL document CHEMBL5604063, “ASAP - DENV-2 NS2B-NS3 protease fluorescence dose response” (2024)
“And” between values parts separate entries of the source, which are not always exact repeats. Identical values can stand only once.

Target: Genome polyprotein (dengue virus type 2, UniProt P29990)
Assay type: functional, Thailand/16681/1984

Genome polyprotein, sequence (P29990 1346-1475 limits assumed): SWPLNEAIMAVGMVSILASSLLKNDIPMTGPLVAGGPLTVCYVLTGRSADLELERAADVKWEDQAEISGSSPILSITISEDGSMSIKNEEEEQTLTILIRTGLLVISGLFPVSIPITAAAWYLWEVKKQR
Genome polyprotein, sequence (P29990 1476-2093 limits assumed): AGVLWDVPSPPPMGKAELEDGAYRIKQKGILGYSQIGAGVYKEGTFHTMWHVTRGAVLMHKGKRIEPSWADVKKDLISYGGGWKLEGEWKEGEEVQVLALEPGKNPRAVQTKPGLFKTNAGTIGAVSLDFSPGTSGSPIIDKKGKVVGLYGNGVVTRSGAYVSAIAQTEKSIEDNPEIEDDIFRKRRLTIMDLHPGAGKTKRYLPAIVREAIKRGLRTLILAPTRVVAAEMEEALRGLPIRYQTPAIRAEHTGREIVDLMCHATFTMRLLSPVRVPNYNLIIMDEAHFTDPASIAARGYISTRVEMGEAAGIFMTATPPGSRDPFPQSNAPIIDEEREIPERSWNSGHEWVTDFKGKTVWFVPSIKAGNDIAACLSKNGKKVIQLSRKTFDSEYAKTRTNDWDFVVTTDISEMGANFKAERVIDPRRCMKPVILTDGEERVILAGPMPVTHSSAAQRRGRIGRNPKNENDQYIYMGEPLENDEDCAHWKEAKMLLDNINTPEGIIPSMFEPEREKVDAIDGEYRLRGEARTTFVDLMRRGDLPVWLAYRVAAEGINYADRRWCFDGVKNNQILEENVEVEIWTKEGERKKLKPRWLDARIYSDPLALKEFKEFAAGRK

## O=C(O)c1cc(Cl)ccc1S(=O)(=O)NC1CCN(Cc2ccc(F)c(F)c2)CC1
  IC50: > 99.5 µM

## CCN1CCN(c2ccc(NS(=O)(=O)c3ccc(Cl)cc3C(=O)O)cc2)CC1
  IC50: > 99.5 µM

## COc1ccc(F)cc1-c1ccc(S(=O)(=O)Nc2ccc(Cl)cc2C(=O)O)cc1
  IC50: 11.7 µM

## CCn1c(=O)c(N2C[C@H]3CCC[C@H]2C3)nc2ccccc21
  IC50: > 99.5 µM

## O=C(O)c1cc(Cl)ccc1S(=O)(=O)Nc1ccc(N2CCCCC2)c(Cl)c1
  IC50: 71.6 µM

## O=C(O)c1cc(Cl)ccc1S(=O)(=O)NC1CCN(c2ccc(C(F)(F)F)cn2)CC1
  IC50: > 99.5 µM

## O=C(O)Cc1cc(NS(=O)(=O)c2ccc(Oc3ccccc3Cl)cc2)ccc1Cl
  IC50: 96.1 µM

## O=C(O)c1cc(F)c(F)c(F)c1NS(=O)(=O)c1ccc(Oc2ccccc2Cl)cc1
  IC50: 24.5 µM

## CCC(=O)N1CCc2ccc(NS(=O)(=O)c3ccc(Cl)cc3C(=O)O)cc21
  IC50: > 99.5 µM

## Cc1nn(C)cc1-c1ccc(S(=O)(=O)Nc2ccc(Cl)cc2C(=O)O)cc1
  IC50: 85.4 µM

## O=C(Cn1ccnc(N2CC[C@H](CO)C2)c1=O)NCc1nccs1
  IC50: > 99.5 µM

## CCn1ccnc(N2C[C@H](c3c[nH]c4ccccc34)[C@H](N3C(=O)c4ccccc4C3=O)C2)c1=O
  IC50: > 99.5 µM

## O=C(Nc1ccc(NS(=O)(=O)c2ccc(Cl)cc2C(=O)O)cc1)c1ccccc1
  IC50: > 99.5 µM

## CC(C)Oc1ccccc1C(=O)N[C@H](C(=O)Nc1cccc(CN)c1)c1ccc(OCc2ccccc2)cc1
  IC50: 74.2 µM

## COc1ccc(N2CCC(NS(=O)(=O)c3ccc(Cl)cc3C(=O)O)CC2)cc1
  IC50: > 99.5 µM

## O=C(O)c1cc(Cl)ccc1S(=O)(=O)N[C@H]1CC[C@@H](Oc2ccccc2)CC1
  IC50: > 99.5 µM

## NCc1cccc(NC(=O)[C@H](NS(=O)(=O)CC2CCC2)c2ccc(OCc3ccccc3)cc2)c1
  IC50: > 99.5 µM

## COc1ccc(NS(=O)(=O)c2ccc(Cl)cc2C(=O)O)cc1-n1nnnc1C
  IC50: > 99.5 µM

## NCc1cccc(NC(=O)[C@H](NC(=O)Cc2ccccc2)c2ccc(OCc3ccccc3)cc2)c1
  IC50: 32.8 µM and 32.1 µM

## O=C(O)c1cc(Cl)ccc1NS(=O)(=O)c1ccc(-c2ccccc2Cl)cc1
  IC50: 6.93 µM

## NCc1cccc(NC(=O)[C@H](NC(=O)OCc2ccccc2)c2ccc(Br)cc2F)c1
  IC50: 66 µM

## Cn1ccnc(N2CCC(NS(=O)(=O)c3ccc(Cl)cc3C(=O)O)CC2)c1=O
  IC50: > 99.5 µM

## NCc1cccc(NC(=O)[C@H](NC(=O)OCc2ccccc2)c2cccc(-c3ccc(S(N)(=O)=O)cc3)c2)c1
  IC50: > 99.5 µM

## Cn1cc(-c2cccc([C@H](NC(=O)OCc3ccccc3)C(=O)Nc3cccc(CN)c3)c2)cn1
  IC50: > 99.5 µM

## COCc1cc(Cl)ccc1NS(=O)(=O)c1ccc(Oc2ccccc2Cl)cc1
  IC50: > 99.5 µM

## CCN(C(=O)Cn1ccnc(N2CC[C@H](CO)C2)c1=O)C(C)C
  IC50: > 99.5 µM

## NCc1cccc(NC(=O)c2cc(NC(=O)OCc3ccccc3)c(=O)n3c2CCCC3)c1
  IC50: > 99.5 µM

## COc1ncccc1-c1cccc([C@H](NC(=O)OCc2ccccc2)C(=O)Nc2cccc(CN)c2)c1
  IC50: > 99.5 µM

## O=C(O)c1cc(Cl)ccc1S(=O)(=O)Nc1ccc(CCN2CCCC2)cc1
  IC50: > 99.5 µM

## Cc1cc(N2CCCCC2)ccc1NS(=O)(=O)c1ccc(Cl)cc1C(=O)O
  IC50: > 99.5 µM

## NCc1cccc(NC(=O)[C@H](NC(=O)c2ccns2)c2ccc(OCc3ccccc3)cc2)c1
  IC50: > 99.5 µM

## O=C(O)c1cc(Cl)ccc1S(=O)(=O)Nc1ccc(F)c(N2CCNC2=O)c1
  IC50: > 99.5 µM

## Cc1nccn1-c1ccc(NS(=O)(=O)c2ccc(Cl)cc2C(=O)O)cc1F
  IC50: > 99.5 µM

## O=C(O)c1cc(Cl)ccc1NS(=O)(=O)c1ccc(-c2ccccc2F)cc1
  IC50: 10.1 µM

## O=C(O)c1cc(Cl)ccc1S(=O)(=O)Nc1ccc(N2CCCS2(=O)=O)cc1
  IC50: > 99.5 µM

## Cc1cc(N2CCC(NS(=O)(=O)c3ccc(Cl)cc3C(=O)O)CC2)nc(C)n1
  IC50: > 99.5 µM

## CCOc1cccc(-c2ccc(S(=O)(=O)Nc3ccc(Cl)cc3C(=O)O)cc2)c1
  IC50: 4.25 µM and 6.13 µM

## NCC1(NC(=O)[C@H](NC(=O)OCc2ccccc2)c2ccc(OCc3ccccc3)cc2)CCCCC1
  IC50: > 99.5 µM

## Cn1ccnc1C(=O)N[C@H](C(=O)Nc1cccc(CN)c1)c1ccc(OCc2ccccc2)cc1
  IC50: > 99.5 µM

## CCn1c(=O)c(N2C[C@H]3C[C@H]2CS(=O)(=O)C3)nc2ccccc21
  IC50: > 99.5 µM

## CS(=O)(=O)c1ccc(-c2ccc(S(=O)(=O)Nc3ccc(Cl)cc3C(=O)O)cc2)cc1
  IC50: 33.5 µM

## NCc1cccc(NC(=O)[C@H](NC(=O)OCc2ccccc2)c2cccc(-c3cncc(F)c3)c2)c1
  IC50: > 99.5 µM

## CCn1c(=O)c(N2CC[C@H]3[C@H]2[C@H]3C(F)(F)F)nc2ccccc21
  IC50: > 99.5 µM

## CS(=O)(=O)c1ccc(-c2cccc([C@H](NC(=O)OCc3ccccc3)C(=O)Nc3cccc(CN)c3)c2)cc1
  IC50: 40 µM

## CCC(C)(C)C(=O)N[C@H](C(=O)Nc1cccc(CN)c1)c1ccc(OCc2ccccc2)cc1
  IC50: > 99.5 µM

## O=C(O)c1cc(Cl)ccc1NS(=O)(=O)c1ccc(-c2cccnc2)cc1
  IC50: 91.3 µM

## O=C(O)c1cc(Cl)ccc1S(=O)(=O)NC1CCC(N2CCCCC2=O)CC1 (stereo not drawn)
  IC50: > 99.5 µM

## O=C(O)c1cc(Cl)ccc1S(=O)(=O)Nc1ccc(Oc2ccccn2)cc1
  IC50: > 99.5 µM

## Cc1ccc(C(=O)N[C@H](C(=O)Nc2cccc(CN)c2)c2ccc(OCc3ccccc3)cc2)s1
  IC50: 97.7 µM

## CS(=O)(=O)c1cncc(-c2cccc([C@H](NC(=O)OCc3ccccc3)C(=O)Nc3cccc(CN)c3)c2)c1
  IC50: 71.4 µM

## CCN1C[C@H]2C[C@@H]1CN2c1nc2ccccc2n(CC)c1=O
  IC50: > 99.5 µM

## Cc1ccc(S(=O)(=O)N2CCC(NS(=O)(=O)c3ccc(Cl)cc3C(=O)O)CC2)cc1
  IC50: > 99.5 µM

## Cc1cc(OCc2ccccc2)ccc1NS(=O)(=O)c1ccc(Cl)cc1C(=O)O
  IC50: 27.1 µM

## CCn1c(=O)c(N2CCC[C@@H]2c2cncn2C)nc2ccccc21
  IC50: > 99.5 µM

## CC(C)(C)OC(=O)NCc1cccc(NC(=O)[C@H](NC(=O)OCc2ccccc2)C2CCNCC2)c1
  IC50: > 99.5 µM

## N#Cc1ccccc1-c1ccc(S(=O)(=O)Nc2ccc(Cl)cc2C(=O)O)cc1
  IC50: 25.1 µM

## CCn1c(=O)c(N2CCC[C@H]2C(=O)NC2CC2)nc2ccccc21
  IC50: > 99.5 µM

## NCc1cccc(NC(=O)[C@H](NC(=O)OCc2ccccc2)c2cccc(C3=CCCOC3)c2)c1
  IC50: > 99.5 µM

## CC(C)[C@@H]1[C@H](C(=O)Nc2cccc(CN)c2)CCN1C(=O)OCc1ccccc1
  IC50: > 99.5 µM

## NCc1cccc(NC(=O)[C@H](NC(=O)C2CCCCC2)c2ccc(OCc3ccccc3)cc2)c1
  IC50: 17.6 µM and 20.7 µM and 12.3 µM

## Cn1ncc2cc(C(=O)N3CCC(NC(=O)[C@]4(C)CCC[C@H]4O)CC3)cc(O)c21
  IC50: > 99.5 µM

## O=C(O)c1cc(Cl)ccc1S(=O)(=O)NC1CCN(CC2CCOCC2)CC1
  IC50: > 99.5 µM

## O=C(O)c1cc(Cl)ccc1S(=O)(=O)Nc1ccc(N2CCCCCC2)cc1
  IC50: 55.2 µM

## COc1ccc(NS(=O)(=O)c2ccc(Cl)cc2C(=O)O)cc1OC1CCCC1
  IC50: > 99.5 µM

## O=C(O)c1cc(Cl)ccc1NS(=O)(=O)c1ccc(-c2cn[nH]c2)cc1
  IC50: > 99.5 µM

## CCOc1cc(N2CCN(C)CC2)ccc1NS(=O)(=O)c1ccc(Cl)cc1C(=O)O
  IC50: > 99.5 µM

## CCn1c(=O)c(N2CC[C@]3(CNC(=O)O3)C2)nc2ccccc21
  IC50: > 99.5 µM

## NCc1ccc(NC(=O)c2cc(Cl)cc(NC(=O)OCc3ccccc3)c2)cc1
  IC50: 51.5 µM

## O=C(O)c1cc(Cl)ccc1S(=O)(=O)NC1CCN(S(=O)(=O)c2ccc(I)cc2)CC1
  IC50: 81.7 µM

## O=C(O)c1cc(Cl)ccc1S(=O)(=O)Nc1ccc(-c2cccc(F)c2)cc1
  IC50: 27 µM

## O=C(O)c1cc(Cl)ccc1NS(=O)(=O)c1ccc(-c2cccc(F)c2F)cc1
  IC50: 8.82 µM

## CC(=O)Nc1cccc(-c2ccc(S(=O)(=O)Nc3ccc(Cl)cc3C(=O)O)cc2)c1
  IC50: 23.9 µM

## NCc1cccc(N(C(=O)CNC(=O)OCc2ccccc2)c2ccc(OCc3ccccc3)cc2)c1
  IC50: > 99.5 µM

## CCN1C(=O)CCc2cc(NS(=O)(=O)c3ccc(Cl)cc3C(=O)O)ccc21
  IC50: > 99.5 µM

## O=C(O)c1cc(Cl)ccc1S(=O)(=O)NC1CCN(Cc2ccccn2)CC1
  IC50: > 99.5 µM

## CCn1c(=O)c(N2C[C@H](C)C[C@H]2c2ccccc2)nc2ccccc21
  IC50: > 99.5 µM

## CCn1c(=O)c(N2C[C@]3(CO)C[C@H]2CO3)nc2ccccc21
  IC50: > 99.5 µM

## COc1ccccc1-c1ccc(S(=O)(=O)Nc2ccc(Cl)cc2C(=O)O)cc1
  IC50: 12.8 µM

## O=C(O)c1cc(Cl)ccc1S(=O)(=O)N[C@H]1CCN(Cc2ccccc2)C2(CC2)C1
  IC50: > 99.5 µM

## CC1(NS(=O)(=O)c2ccc(Cl)cc2C(=O)O)CCN(c2ccccc2)CC1
  IC50: > 99.5 µM

## CCOCC(=O)N[C@H](C(=O)Nc1cccc(CN)c1)c1ccc(OCc2ccccc2)cc1
  IC50: > 99.5 µM

## CCn1c(=O)c(N2CCC[C@@H]2Cn2cncn2)nc2ccccc21
  IC50: > 99.5 µM

## O=C(O)c1cc(Cl)ccc1S(=O)(=O)NC1CCN(C(=O)c2ccccc2C(F)(F)F)CC1
  IC50: > 99.5 µM

## CCn1c(=O)c(N2CC[C@H](c3nncs3)C2)nc2ccccc21
  IC50: > 99.5 µM

## NCc1cccc(NC(=O)[C@H](NC(=O)OCc2ccccc2)C2CCC(c3ccccc3)CC2)c1 (stereo partly drawn)
  IC50: 6.26 µM and 5.78 µM

## NCc1ccccc1NC(=O)c1cc(Cl)cc(NC(=O)OCc2ccccc2)c1
  IC50: > 99.5 µM

## Cc1cc(C)n(-c2ccc(NS(=O)(=O)c3ccc(Cl)cc3C(=O)O)cc2)n1
  IC50: > 99.5 µM

## O=C(O)c1cc(Cl)ccc1S(=O)(=O)N[C@H]1CCN(Cc2ccccc2)C(=O)C1
  IC50: > 99.5 µM

## O=C(O)c1cc(Cl)ccc1S(=O)(=O)N[C@H]1CC[C@H]2CN(Cc3ccccc3)C[C@H]2C1
  IC50: > 99.5 µM

## Cc1ncc(COc2ccc([C@H](NC(=O)OCc3ccccc3)C(=O)Nc3cccc(CN)c3)cc2)cn1
  IC50: > 99.5 µM

## CCCCN1Cc2ccc(NS(=O)(=O)c3ccc(Cl)cc3C(=O)O)cc2C1
  IC50: > 99.5 µM

## CCn1c(=O)c(N2CC3(COC3)[C@](F)(CO)C2)nc2ccccc21
  IC50: > 99.5 µM

## CCn1c(=O)c(N2C[C@H]3C[C@H]2C(F)(F)C3)nc2ccccc21
  IC50: > 99.5 µM

## CCn1c(=O)c(N2CC[C@]3(CCSC3)C2)nc2ccccc21
  IC50: > 99.5 µM

## NS(=O)(=O)c1cccc(-c2ccc(S(=O)(=O)Nc3ccc(Cl)cc3C(=O)O)cc2)c1
  IC50: 30.6 µM

## CCn1c(=O)c(N2CCC[C@@H]2Cc2cccs2)nc2ccccc21
  IC50: > 99.5 µM

## CC(=O)N1CCN([C@H]2CC[C@H](NS(=O)(=O)c3ccc(Cl)cc3C(=O)O)CC2)CC1
  IC50: > 99.5 µM

## CCC1CN(C(=O)c2cc(Cl)ccc2NS(=O)(=O)c2ccc(Oc3ccccc3Cl)cc2)C1
  IC50: > 99.5 µM
